Test results published in paper PMC12197642 (Viruses, 2025).

Columns and labels:
FMDV 2C helicase = FMDV 2C helicase (Foot-and-mouth disease virus serotype O, UniProt P03305); assay type: biochemical
[1] = system: FMDV serotype O strain O/China; assay: microbe, parasite or virus in culture; assay type: cell-based, foot-and-mouth disease virus (FMDV)
[2] = system: FMDV serotype O strain O/China; assay type: cell-based, foot-and-mouth disease virus (FMDV)
in vitro = details: hamster
[3] = system: FMDV serotype O strain O/China; assay type: cell-based, foot-and-mouth disease virus (FMDV); remark: listed apart in the source
picornaviral 2C = details: cited from earlier work
[4] = Foot-and-mouth disease virus, BHK-21, read-out: reduction of viral plaque formation (inhibitory efficacy)

FMDV 2C helicase, sequence (P03305 1108-1425 limits assumed): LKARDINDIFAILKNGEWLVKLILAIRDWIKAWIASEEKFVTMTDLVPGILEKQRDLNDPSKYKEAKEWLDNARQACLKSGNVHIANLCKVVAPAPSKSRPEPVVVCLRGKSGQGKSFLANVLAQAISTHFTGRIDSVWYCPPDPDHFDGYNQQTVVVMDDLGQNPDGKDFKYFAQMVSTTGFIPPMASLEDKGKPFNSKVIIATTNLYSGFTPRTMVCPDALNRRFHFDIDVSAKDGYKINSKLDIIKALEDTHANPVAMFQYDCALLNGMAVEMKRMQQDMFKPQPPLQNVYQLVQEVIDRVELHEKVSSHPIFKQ

SMILES	inhibition type (FMDV 2C helicase)	viability at 500 µM (in vitro) [%]	CC50 (in vitro) [µM]	further results
Cc1cccc[n+]1[O-] [Compound C1, 2-methylpyridine 1-oxide]	mixed inhibition	> 50		concentration achieving effective FMDV suppression [1]: 400 µM; reduction of viral plaque formation [1]: 90.2%; inhibition at 200 µM [1, 4]: 97.3%; inhibition at 400 µM [1, 4]: 99.8%; antiviral activity by indirect immunofluorescence [2]: superior viral replication suppression
Sc1cnn[nH]1 [Compound C2, 1H-1,2,3-triazole-5-thiolate]	competitive inhibition	> 50	1330	
Oc1ccccn1 [Compound C3, pyridin-2-ol]	competitive inhibition	> 50	852	
COc1ccc2c(c1)cc1n2CCN2CCCN=C12 [Compound C4, 11-methoxy-3,4,6,7-tetrahydro-2H-pyrimido[2′,1′:3,4]pyrazino[1,2-a]indole]	mixed inhibition		284	concentration achieving effective FMDV suppression [1]: 160 µM; inhibition rate (plaque assay) [1]: 99.7%; antiviral activity by indirect immunofluorescence [2]: superior viral replication suppression; suppression of FMDV RNA levels [3]: significantly outperformed 2-MPO
COc1cccc2c1NC(=O)C(Cl)(Cl)C2=O [Compound C5, 3,3-dichloro-8-methoxy-2,4(1H,3H)-quinolinedione]	noncompetitive inhibition		127	
O=C1C=CC2(C=C1)OC(=O)c1ccccc1O2 [Compound C6, Spiro (4H-[1,3]benzodioxine-2,4′-[2,5]cyclohexadiene)-1′,4-dione]	noncompetitive inhibition		3	
Cl.N=C(N)N [Guanidine hydrochloride]				effect on helicase and ATPase activities (picornaviral 2C): suppresses helicase and ATPase activities
